Consider 16 compounds from patent US5714516A, “Anti-viral agents” (priority 1992, dated 1998).

Data set [1] has as its system Varicella zoster virus (VZV). In words: VZV plaque reduction assay in Mewo cells. It is filed as cell-based, varicella zoster virus (VZV) strain H-551. To be noted: for Inhibition of VZV (in words): Example 1, 2 to 200 μM. As for the experimental part:
(§1) The assay system used was the Mewo cell plaque reduction assay of VZV, C. Grose and P. A. Brunell, Infection & Immunity, 19, 199-203 (1978). […] Compounds were tested at levels from 2 to 200 μM.
(§2) The VZV plaque assay of Example 1 was repeated using a variety of myristic acid analogues. Briefly, sub-confluent Mewo monolayers (Grose and Brunell, 1978, supra) in 24 well plates were infected with approximately 40 P.F.U. (Plaque Forming Units) of cell-free varicella zoster virus (VZV) strain H-551. After an adsorption period of 2 hours the cells were overlaid with 750 μl of MEM (Minimum Essential Medium (Eagle)) supplemented with 2% fetal calf serum and 1% non-essential amino acids. The anti-viral compounds to be tested were solubilized in ethanol, added to final concentrations of 0, 2, 20 or 200 μM and the wells then overlaid with a further 750 μl of MEM supplemented with 2% fetal calf serum, 1% non-essential amino acids and 0.3% agarose. Mock infected wells were also included as controls to test for cytotoxicity. All plates were incubated at 32° C. with 5% CO2. Eight days post infection the monolayers were fixed in 4% formaldehyde and stained with crystal violet.
(§3) The effect of 2-hydroxymyristic acid (2-HM) on VZV or HIV when solubilized in a variety of solvents was observed using the methods approved for the Medical Research Council AIDS Directed Programme as described in H. C. Holmes et al., Antiviral Chem. & Chemother. (1991), 2(5), 287-293, using concentrations of 2 HM from 0.08to 1000 μM. Additionally, back titration assays of HIV were carried out by adding supernatants from treated infected cells to uninfected C8166 cells at increasing dilutions. Assays were scored by recording the presence or absence of syncytium formation.
(§4) Preparation and assay of VZV was carried out as described previously in Examples 1 and 3.
Stocks of 2-HM were prepared from crystalline solid by dissolving in ethanol or in dimethyl sulphoxide (DMSO) to a concentration of 20 mM to 100 mM, and were stored at -20° C. prior to addition to culture media.
For orientation: Plaque reduction counts the foci of infection that form in a cell layer.

Another data set relates to Mewo cells. Description: Cytotoxicity in Mewo cells (monolayer) in the VZV plaque assay. Also on record: Toxicity in Mewo Cells: key to the marks not given beside the values. Here is the method: as §1, §2, §4
Data set [2] deals with HIV. To be noted: Saermark et al.; Bryant et al.; cited from earlier work.
A further data set can be described thus: in vitro. Also noted: Toxicity in Mewo Cells: key to the marks not given beside the values. To be noted: human, mewo cells. Here is the method:
as §1, §2, §4

The subject of data set [3] is VZV viral antigen synthesis. In words: Synthesis of VZV viral antigen assayed by immunoblotting in infected MRC5 cells. It is filed as cell-based, Varicella zoster virus (VZV). Here is the method:
In order to characterise the nature of the antiviral effect, the effect of 2-hydroxymyristic acid on the synthesis of viral antigen was assayed by immunoblotting.

The test system of a further data set is MRC5 monolayer. In words: Total protein synthesis by incorporation of 35S methionine in infected MRC5 cells (cytotoxicity). It is filed as cell-based. Here is the method:
(§5) Cytotoxicity was assessed by the incorporation of radiolabelled precursors to assay protein synthesis and myristoylation in the infected cell.

Another data set concerns myristoylation. In words: Myristoylation in the infected cell by incorporation of radiolabelled precursors. The data set is classed as cell-based. To be noted: 0.1 to 10×IC50. Here is the method: as §5
For data set [4], the system named is HIV. In words: HIV antigen assay. To be noted: for IC50: Human immunodeficiency virus 1, Table 2. It is filed as cell-based. As for the experimental part:
as §3
(§6) The HIV assays were performed at three of the MRC approved laboratories (Mill Hill, Cambridge and St. Bartholomew's Hospital).
(§7) Stocks of 2-HM were prepared from crystalline solid by dissolving in ethanol or in dimethyl sulphoxide (DMSO) to a concentration of 20 mM to 100 mM, and were stored at -20° C. prior to addition to culture media. Concentrations of 2-HM greater than 80 to 100 μM are imprecise, since 2-HM crystallises from aqueous solutions at such levels.

Data set [5] has as its system HIV. Description: HIV virus titration (back titration, syncytium formation in C8166 cells). The data set is classed as cell-based. To be noted: Human immunodeficiency virus 1, C8166; Table 2; Ethanol; Mill Hill. As for the experimental part: as §3, §6, §7
Data set [6] in a line: Cytotoxicity to C8166 cells in HIV assays. The data set is classed as cell-based. To be noted: human, c8166 cells, Table 2. Here is the method:
as §3, §6, §7

The next data set relates to C8166 cells. In words: Cytotoxicity to C8166 cells in HIV assays. It is filed as cell-based. To be noted: St. Bartholomew's and Mill Hill; only above levels at which 2-HM would crystallise from aqueous solution. As for the experimental part: as §3, §6, §7
Data set [7] is described as follows: Crystallisation from aqueous solution / medium. The data set is classed as physicochemical.
[8] abbreviates: Human alphaherpesvirus 3, MeWo, 192 h, read-out: IC50 Against VZV (μM).
[9] abbreviates: Table 1, Example 3, solubilized in ethanol, 0, 2, 20 or 200 μM, eight days post infection, Mewo cells.
Setting [10] is: Table 1, Example 3, solubilized in ethanol, 0, 2, 20 or 200 μM, eight days post infection, Mewo cells, read-out: IC50 Against VZV.
Where [11] appears, read: Human alphaherpesvirus 3, MeWo, 192 h, Table 1, Example 3, solubilized in ethanol, 0, 2, 20 or 200 μM, eight days post infection, Mewo cells, read-out: IC50 Against VZV.

In brackets after ≈: the same amount, converted by molar mass. Entries after “also recorded” stand apart in the source; their conditions may differ. Read-outs that look alike come from different tables or passages of the source.

Regarding `COCCCCCCCCCCCC(=O)O` [12-(methyloxy)dodecanoic acid, reference compound], the IC50 in [1] (setting [8]) turned out to be 17.3 µM.

As to `CCCCCCCCCCCCCCC(Br)C(=O)O` (stereo not drawn) [2-bromopalmitic acid], the IC50 in data set [1] (setting [8]) came out at 0.89 µM. Further, the “Toxic at 200 μM (in words)” value with Mewo cells (Example 3, at 200 μM) is “toxic at 200 μM”. The “Toxicity in Mewo Cells” value in the data set on Mewo cells (Table 1, Example 3, 0, 2, 20 or 200 μM, eight days post infection) is “+++”.

Regarding `CCCCCCCCCCCCCC(=O)NCC(OCC)OCC` [N-myristoylglycinaldiethylacetal (GoA), N-myristoylglycinaldiethylacetal, reference compound], in [1], the “Inhibition of VZV (in words)” value is “did not cause 50% inhibition of virus at any concentration tested”. Moreover, the “IC50 Against VZV (μM)” value in data set [1] (setting [9]) was “unobtainable”.

For the compound `CCCCCCCCCCCCC(O)C(=O)O` (single isomer, unassigned) [2-hydroxytetradecanoic acid (+)], the IC50 in [1] (setting [10]) was determined as 48.7 µM. The “Cytotoxicity in the assay (in words)” value in the data set with Mewo cells is “failed to be cytotoxic”.

Regarding `O=C(O)C1CO1` (stereo not drawn) [glycidic acid, reference compound], the IC50 in [1] (setting [11]) is 4.5 µM.

As for `CCNCCCCCCCCCCC(=O)O` [11-(ethylamino)undecanoic acid, reference compound], in data set [1] (setting [9]), the “IC50 Against VZV (μM)” value was “unobtainable”.

Turning to `CCCCCCCCCCCCCC(=O)NC` [myristoylmethylamide, reference compound], the IC50 in [1] (setting [11]) came out at 56.6 µM.

In the case of `CCCCCCCCCCCCC(N=[N+]=[N-])C(=O)O` (stereo not drawn) [2-azidotetradecanoic acid, reference compound], the “IC50 Against VZV (μM)” value in data set [1] (setting [9]) is reported as “unobtainable”.

As for `CCCCCCCCCCCCC(Br)C(=O)O` (stereo not drawn) [2-bromotetradecanoic acid, reference compound], the IC50 in [1] (setting [11]) came to 14.8 µM.

In the case of `CCCCCCCCCCCCC(O)C(=O)O` (single isomer, unassigned) [2-hydroxytetradecanoic acid (-)], the IC50 in data set [1] (setting [10]) was determined as 11.5 µM. Also, in the data set with Mewo cells, the “Cytotoxicity in the assay (in words)” value is reported as “failed to be cytotoxic”.

`CCCCCCCCCC(OCC)C(=O)O` (stereo not drawn) [2-(ethyloxy)undecanoic acid, reference compound]: the IC50 in data set [1] (setting [11]) worked out at 14.4 µM.

For `CCSCCCCCCCCCCC(=O)O` [11-(ethylthio)undecanoic acid, reference compound], the “IC50 Against VZV (μM)” value in [1] (setting [9]) was “unobtainable”.

With `COCCCCCCCCCCCC(=O)O` [13-oxamyristic acid], the “Inhibition of HIV release from infected cells (in words)” value with HIV [2] is reported as “effective”.

In the case of `CCCCCCCCCCCCC(O)C(=O)O` (racemic) [2-hydroxymyristic acid], the “Inhibition of VZV (in words)” value in data set [1] was “showed inhibition at 20 and 200 μM”. For the same compound, the IC50 in data set [1] (Human alphaherpesvirus 3, MeWo, 8 μM lower end to 33 μM upper end, read-out: Range of IC50 against VZV over Examples) was 8 to 33 µM; in [1] (setting [11]), 21.5 µM; in [1] (Human alphaherpesvirus 3, MeWo, Table 2, DMSO, St. Bartholomew's, read-out: IC50, VZV plaque reduction), greater than 200 µM; in [1] (Human alphaherpesvirus 3, MeWo, Table 2, Ethanol, St. Bartholomew's, read-out: IC50, VZV plaque reduction) it was 33.1 µM; in [1] (Human alphaherpesvirus 3, MeWo, read-out: 50% inhibitory concentration (IC50), VZV plaque reduction), 8 µM; in the data set with HIV [4] (DMSO, St. Bartholomew's) it was 220 µM. Further, the IC50 in the data set on HIV [4] (Ethanol, Mill Hill) is 2 µM; in the data set with HIV [4] (Ethanol, St. Bartholomew's), 31.4 µM; in the data set on HIV [5], 3.9 µM. Also, the “Anti-viral effect against VZV (in words)” value in data set [1] (solubilised in DMSO) was “no significant anti-viral effect”. Further, in data set [1] (solubilised in ethanol, St. Bartholomew's Hospital), the “Inhibition of VZV replication (in words)” value is on record as “inhibits the replication”. The CC50 is greater than 200 µM in “in vitro”; greater than 200 µM in the data set with Mewo cells (human, mewo cells); greater than 400 µM in data set [6] (DMSO, St. Bartholomew's, read-out: TC50, HIV antigen assay); 192 µM in data set [6] (Ethanol, Mill Hill, antigen assay, read-out: TC50, HIV antigen assay); 192 µM in [6] (Ethanol, Mill Hill, virus titration, read-out: TC50, HIV virus titration); 168 µM in data set [6] (Ethanol, St. Bartholomew's, read-out: TC50, HIV antigen assay). Also, the “Cytotoxicity in the assay (in words)” value in the data set with Mewo cells is “failed to be cytotoxic”. Further, in [3] (MRC5 monolayers, suggested by results), the “Effect on syncytium formation” value is on record as “inhibit syncytium formation”. In addition, in [3] (inoculum one infected to four uninfected cells, three days post-infection, 80 μM (10×IC50)), the “Reduction in viral antigen synthesis” value is listed as “no reduction in antigen synthesis was apparent”. Besides, the “Inhibition of viral antigen synthesis at reduced inoculum” value in [3] (reduced initial inoculum, harvest time increased, inversely proportional to inoculum) is recorded as “inhibition was apparent”. Besides, in the data set on MRC5 monolayer (1:4 inoculum, 0.1 to 10×IC50), the “Total protein synthesis (35S methionine incorporation)” value is given as “unaffected at any concentration tested”. Further, the “Cellular toxicity (in words)” value with MRC5 monolayer (up to ten times greater than the IC50) is given as “not toxic to cells; also recorded: without producing significant cellular toxicity”. Further, the Inhibition of myristoylation result with myristoylation is “non-specific inhibition of myristoylation”. In the data set on HIV [4] (ethanol as the solvent, St. Bartholomew's Hospital), the “Anti-viral effect against HIV on re-test (in words)” value was “a clear anti-viral effect was apparent”. The “Anti-viral effect against HIV (in words)” value in the data set on HIV [4] (solubilised in DMSO, St. Bartholomew's Hospital) is reported as “lack of any significant anti-viral effect”. For the same compound, in the data set with HIV [4] (solubilised in ethanol, Mill Hill), the “Inhibition of HIV replication (in words)” value was “inhibits the replication”. Also, the “Toxicity to C8166 cells (in words)” value in the data set on C8166 cells was “toxicity of 2-HM to C8166 cells was detected”. In addition, the solubility in data set [7] (aqueous solution, aqueous solutions, read-out: Concentration above which 2-HM crystallises from aqueous solutions) fell in the range of 80 to 100 µM (≈ 19.5 to 24.4 µg/mL). For the same compound, the Crystalline deposits entry in data set [7] (at the highest concentration, VZV plaque assay) is given as “crystalline deposits were observed”.

On to `CCCCCCCCCCCCCCC(O)C(=O)O` (stereo not drawn) [2-hydroxypalmitic acid], for which the IC50 in [1] (setting [11]) turned out to be 14.2 µM.

As to `CCCCNCCCCCCCCC(=O)O` [9-(butylamino)nonanoic acid, reference compound], the IC50 in data set [1] (setting [11]) stood at 164 µM.
